Laboratory results: patent US7030150B2, “Benzimidazole compounds and antiviral uses thereof” (Trimeris, Inc., priority 2001, dated 2006)

Tested on: uninfected Hep2 cells
Conditions: not given

For CN(C)CCCN(CCCN(C)C)Cc1nc2ccccc2n1Cc1nc2ccccc2[nH]1 [compound 101], which CC50 is on record?
Its CC50 is at least 100 µM.

Which CC50 does the source give for CCCNCc1nc2ccccc2n1Cc1nc2ccccc2[nH]1 [compound 128] here?
The CC50 was at least 100 µM.

With c1ccc2[nH]c(Cn3c(CN4CCSC4)nc4ccccc43)nc2c1 [compound 222] as the molecule, how does the CC50 read?
Its CC50 is at least 100 µM.

Which CC50 does the source give for Cc1nc(Cn2c(CN(C(C)C)C3CCCCC3)nc3ccccc32)cs1 [compound 2] here?
Its CC50 is 50 µM.

With CC(C)N(Cc1nc2ccccc2n1Cc1ccc(S(C)(=O)=O)cc1)C1CCCCC1 [compound 13] as the molecule, how does the CC50 read?
Its CC50 is at least 100 µM.

With FC(F)(F)c1ccccc1CNCc1nc2ccccc2n1Cc1nc2ccccc2[nH]1 [compound 139] as the molecule, how does the CC50 read?
The CC50 was 18 µM.

Which CC50 does the source give for CC(C)CCN(CCC(C)C)Cc1nc2ccccc2n1Cc1nc2ccccc2[nH]1 [compound 87] here?
The CC50 was at least 100 µM.

With O=C(c1ccco1)N1CCN(Cc2nc3ccccc3n2Cc2nc3ccccc3[nH]2)CC1 [compound 198] as the molecule, how does the CC50 read?
Its CC50 is at least 100 µM.

Which CC50 does the source give for c1ccc(C(CNCc2nc3ccccc3n2Cc2nc3ccccc3[nH]2)c2ccccc2)cc1 [compound 132] here?
The CC50 was at least 100 µM.

For c1ccc2[nH]c(Cn3c(CNCC4CCCO4)nc4ccccc43)nc2c1 (centres unmarked) [compound 170], which CC50 is on record?
Its CC50 is at least 100 µM.

For CCCCC(CO)NCc1nc2ccccc2n1Cc1nc2ccccc2[nH]1 (centres unmarked) [compound 176], which CC50 is on record?
Its CC50 is at least 100 µM.

Which CC50 does the source give for Cc1nc(Cn2c(CN3CCCCC3)nc3ccccc32)cs1 [compound 51] here?
Its CC50 is 50 µM.

Which CC50 does the source give for O=[N+]([O-])c1ccc(Cn2c(CN3CCCCC3)nc3ccccc32)o1 [compound 54] here?
The CC50 was 97 µM.

For c1ccc2[nH]c(Cn3c(CN4CCC(C5CCNCC5)CC4)nc4ccccc43)nc2c1 [compound 217], which CC50 is on record?
The CC50 was at least 100 µM.

For c1ccc2[nH]c(Cn3c(CN4CCC(N5CCCC5)CC4)nc4ccccc43)nc2c1 [compound 228], which CC50 is on record?
The CC50 was 60 µM.

For CCN(Cc1nc2ccccc2n1Cc1nc2ccccc2[nH]1)C(C)C [compound 81], which CC50 is on record?
Its CC50 is 63 µM.

With O=C1CCCN1CCCNCc1nc2ccccc2n1Cc1nc2ccccc2[nH]1 [compound 141] as the molecule, how does the CC50 read?
Its CC50 is 35 µM.

With C#CCCN(C)Cc1nc2ccccc2n1Cc1nc2ccccc2[nH]1 [compound 94] as the molecule, how does the CC50 read?
The CC50 was 16 µM.

For c1ccc(CN2CCC(NCc3nc4ccccc4n3Cc3nc4ccccc4[nH]3)CC2)cc1 [compound 137], which CC50 is on record?
Its CC50 is 95 µM.

With OCC1CCCN(Cc2nc3ccccc3n2Cc2nc3ccccc3[nH]2)C1 (centres unmarked) [compound 211] as the molecule, how does the CC50 read?
Its CC50 is 32 µM.

For c1ccc2[nH]c(Cn3c(CN4CCCCC4)nc4ccccc43)nc2c1 [compound 79], which CC50 is on record?
Its CC50 is at least 100 µM.

Tested on: poliovirus type 1
Conditions: monkey kidney and HeLa cell cultures; cited from earlier work

For OC(c1ccccc1)c1nc2ccccc2[nH]1 (stereo not drawn) [2-(α-hydroxybenzyl)benzimidazole], which “inhibition of poliovirus type 1” value is on record?
Its value is “inhibits”.

Tested on: rhinoviruses
Conditions: cited from earlier work

Which “inhibition of the cytopathic effect” value does the source give for COc1ccc2[nH]c(C(O)C(O)c3nc4cc(OC)ccc4[nH]3)nc2c1 (centres unmarked) [1,2-(5-methoxy-2-benzimidazole)-1,2-ethanediol] here?
The value was 100%.

Tested on: picornaviruses
Conditions: cited from earlier work

For c1ccc2[nH]cnc2c1 [benzimidazole], which “antiviral activity against an assortment of picornaviruses” value (“antiviral activity against an assortment” below) is on record?
Its value is “active”.

With OC(c1ccccc1)c1nc2ccccc2[nH]1 (stereo not drawn) [2-(α-hydroxybenzyl)benzimidazole] as the molecule, how does the “antiviral activity against an assortment” value read?
Its value is “active”.

With OC(c1nc2ccccc2[nH]1)C(O)c1nc2ccccc2[nH]1 (centres unmarked) [1,2-bis(2-benzimidazole)-1,2-ethanediol] as the molecule, how does the “antiviral activity against an assortment” value read?
The value was “active”.
